Data set [1] deals with tail pigmentation of black mice. The data set is described as follows: Depigmenting power in vivo on the tails of black mice (lightness parameter L*). The conditions noted are these: concentration ten times as great increases the efficacy by a factor of two. On the procedure: L 908/1). Composition 1: gel containing 99.0% of liposomes containing a 0.5% dose of diethyl acetone-α,α'-dioxalate Composition 2: emulsion containing 10.0% of liposomes containing a 0.5% dose of diethyl acetone-α,α'-dioxalate Reference product: composition containing 2% hydroquinone Each composition is applied daily for 28 days to the tail of four black mice. For each mouse, the lightness parameter L* is measured on day D0, D15 and D28 using a chromameter.

For data set [2], the system named is tyrosinase. The data set is described as follows: Inhibition of the L-DOPA-tyrosinase reaction, revealed by thin layer chromatography. It is filed as biochemical. The conditions noted are these: 10 μl of a 1% solution in ethanol on silica gel plate; L-DOPA 1 M, tyrosinase 238 IU/ml. As to the method: 10 μl of a 1% solution of diethyl acetone-α,α'-dioxalate in ethanol (at 96%) is deposited onto G60 silica gel plates. The migration solvent is a butanol/water/acetic acid mixture (4/1/1, v/v/v) which is migrated to a height of 10 cm. After drying, an L-DOPA solution (1 M) is sprayed over the entire plate, followed by a tyrosinase solution (238 IU/ml). […] This white spot is due to the absence of tyrosinase activity converting the L-DOPA substrate into dopaquinone, the molecule which spontaneously converts into a brown pigment (brown background) in the presence of light.

Data set [3] relates to tyrosinase. The data set is described as follows: Inhibition of the tyrosine-tyrosinase reaction, spectrophotometric assay of melanin (absorbance at 477 nm). It is filed as biochemical. On the procedure:
This is a spectrophotometric assay (absorbance at 477 nm) of the melanin produced in vitro by tyrosinase from the tyrosine substrate. […] 2.0 ml of bis Tris buffer (0.1 M, pH 6.5) and 5.0 ml of tyrosine stock solution are added to 0 ml, 1.2 ml, 2.0 ml and 2.5 ml of tyrosinase solution and the mixtures are each completed with water to a total volume of 10.0 ml. These mixtures are incubated for 1 hour and 30 minutes at 37° C. on a water bath and are then rapidly cooled to 4° C. Measurement of the absorbance of the solutions at λ=477 nm relative to a solution free of tyrosinase makes it possible to plot a calibration curve characterized by the curve equation y=0.813×+1.27×10^-3 and by a correlation coefficient equal to 0.999. The following solutions are then prepared: Control solution (100% tyrosinase activity): Solution to be ascertained: These two solutions are incubated for 1 hour 30 minutes on a water bath at 37° C. The solutions are rapidly cooled to 4° C. and the absorbance at 477 nm is then read, taking a blank free of tyrosinase as reference.

Data set [4] in a line: Oral toxicity in rats (LD50). The conditions noted are these: rat, in vivo, administered orally to rats, read-out: 50% lethal dose (LD50). On the procedure: The evaluation of the toxicity of the active principle of the present invention, administered orally to rats, gives 50% lethal dose values (LD50) of greater than 2000 mg/kg. Diethyl acetone-α,α'-dioxalate is thus not classed as a risk product.

Data set [5] relates to tyrosinase in melanocytes of human skin explants. The data set is described as follows: Depigmenting power in vitro on skin explants (histological evaluation of melanocyte coloration). It is filed as cell-based. The conditions noted are these: for tyrosinase activity: 15 hours at 37° C., 0.005 M L-DOPA. As to the method:
The inhibitory activity of diethyl acetone-α,α'-dioxalate on tyrisonase in melanocytes was evaluated by a histological study on skin explants.
After thawing and fixing for 30 minutes in 10% (w/v) formaldehyde solution, human skin explants obtained from an abdominoplasty are incubated for 15 hours at 37° C. in the presence of 0.005 M of L-DOPA and of the test products.
The diethyl acetone-α,α'-dioxalate is used at concentrations of 0.5%, 1% and 2% (w/v) in a 10% (v/v) solution of DMSO in water.
Control explants incubated only in the presence of 0.005 M of L-DOPA are prepared in parallel.
For the histological examination, 4 μm thick slices are taken from explants included in paraffin and the slices are stained with cresyl violet.
Optical microscopy photographs in white light allow a visual evaluation of the coloration of the melanocytes reflecting the tyrosinase activity.

By LD50 is commonly meant the dose at which mortality reaches 50%. On to `CCOC(=O)C(O)=CC(=O)C=C(O)C(=O)OCC` [diethyl acetone-α,α'-dioxalate], for which the “dose dependence of depigmenting efficacy” value in data set [1] was “acts in a dose-dependent manner”. Besides, the “inhibition of the DOPA-tyrosinase reaction (white band on brown background)” value in the data set with tyrosinase [2] is given as “effectively inhibits the DOPA-tyrosinase reaction”. The “in vitro production of melanin by tyrosinase from L-tyrosine” value in the data set with tyrosinase [3] (2.58% solution in alcohol) is listed as “effectively inhibits the in vitro production of melanin”. Moreover, the “Absorbance at 477 nm solution to be assayed, mean” value with tyrosinase [3] (mean of five tests, 2.0 ml of 2.58% solution in alcohol, 1 h 30 min at 37° C., control mean ≈1.16) was “≈ 0”. The “Absorbance at 477 nm solution to be assayed” value with tyrosinase [3] (single tests 1-5, 2.0 ml of 2.58% solution in alcohol, 1 h 30 min at 37° C., control solution 1.16-1.23) was “≈ 0”. Also, the LD50 in data set [4] is above 2000 mg/kg. Moreover, the tyrosinase activity in data set [5] (0.5% (w/v) in 10% DMSO), in data set [5] (1.0% (w/v) in 10% DMSO) and in data set [5] (2.0% (w/v) in 10% DMSO) was 0 in each case. The “inhibition of the tyrosinase activity in skin explants” value in data set [5] (tested at 0.5%, 1.0% and 2%) is “totally inhibits the tyrosinase activity”.
In the case of `Oc1ccc(O)cc1` [hydroquinone, reference compound], in data set [5] (1.1% (w/v) in 10% DMSO), the tyrosinase activity is 0.

Values taken from patent US5962524A, “Depigmenting composition” (Caster, priority 1997, dated 1999).
